Assay results: article PMC10042540, “Targeting oncogenic KRasG13C with nucleotide-based covalent inhibitors” (eLife, 2023)

How the values were obtained:
nucleotide-free KRas = assay: Stopped-flow competition with mantdGDP (association kinetics); format: binding; conditions: for kon: 25 °C, 1 µM KRas, 2 µM mantdGDP, 1, 2, 6 µM competing nucleotide, global fit
Protocol: The association kinetics of the nucleotide analogues were analyzed with a SX-20 stopped-flow instrument (Applied Photophysics) at 25 °C in a buffer consisting of 25 mM HEPES (pH 7.5), 100 mM NaCl, 1 mM MgCl2, and 0.5 mM TCEP. 1 µM of nucleotide-free KRas ([Müller et al., 2017]) in one syringe was mixed rapidly with 2 µM mantdGDP in the other. In subsequent experiments, the second syringe contained competing nucleotides (1, 2, and 6 µM) in addition to 2 µM mantdGDP. The resulting progress curves were globally fit using KinTek Explorer to obtain the corresponding association rate constants as previously described (Table 1—source data 1, Table 1—source data 2 [Johnson et al., 2009]).

KRasWT1-169 = KRasWT1-169 (Homo sapiens, UniProt P01116); assay: HPLC-based approach for determination of affinities relative to GDP; format: binding; conditions: KA = KA(GDP) x KrelA; GDP from KA = 1/KD
Chain of KRasWT1-169 (P01116 1-169): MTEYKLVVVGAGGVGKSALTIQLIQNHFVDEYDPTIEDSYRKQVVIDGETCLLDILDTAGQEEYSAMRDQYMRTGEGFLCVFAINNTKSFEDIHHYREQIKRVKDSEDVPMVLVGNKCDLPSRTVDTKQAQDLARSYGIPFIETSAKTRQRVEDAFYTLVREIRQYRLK
Protocol: The relative affinities of the nucleotide analogues were measured using an HPLC-based approach. 50 μM of […] was mixed with 50 μM of the acetamide derivatives and incubated either for 7 days at room temperature in the absence of EDTA, for 24 hr at 4 °C in the presence of 10 mM EDTA, or for 1 hr at room temperature in the presence of SOS in a buffer consisting of 20 mM HEPES (pH 7.5), 100 mM NaCl, 2 mM MgCl2, 1 mM TCEP and 5% glycerol. After incubation, the Ras proteins were washed five times with buffer (15 mL) using centrifugal filter devices to remove any unbound nucleotide, concentrated and analysed by isocratic HPLC runs. The resulting curves were analysed by integrating the corresponding peaks for GDP and the guanosine nucleotide analogues after distinct time points using the Agilent ChemStation Software (Table 1-source data 3, Table 1-source data 4). Based on the percentage distribution determined by the HPLC assay, the relative association constants (KrelA) for […] and bdaGDP could subsequently be calculated. In contrast, the superposition of the GDP signal prevented an exact determination of the relative association constant for […] values of 0.34 and 0.28 relative to GDP were determined for […] and bdaGDP, respectively. […] By rearranging the equilibrium reactions listed in (Equation 1a) and (Equation 1b), the following relationships are obtained for KGDP (Equation 2a) and […] Assuming that the concentration for aGDP used in the HPLC assay is 50 μM, the following GDP concentrations for […] (Equation 3a) and bdaGDP (Equation 3b) can be determined at time t=0 hr using the percentages determined in Table 1-source data 3:(3a) GDPtotal=%GDP/%[…]=37%/63%×50μM=29.4μM (3b) GDPtotal=%GDP/%bdaGDP=43%/57%×50μM=37.7μM The concentrations of the components listed in equation (Equation 2b) can be calculated as follows for […] (Equation 4a, Equation 4b, Equation 4c, Equation 4d) and bdaGDP (Equation 5a, Equation 5b, Equation 5c, Equation 5d) by considering the total GDP concentrations calculated previously:(4[…]]=47/100×29.4μM=13.8μM (4b) [Ras:GDP]=53/100×29.4μM=15.6μ[…]]=50μM-13.8μM=36.2μM (4d) [GDP]=29.4μM-15.6μM=13.8μM (5a) [Ras:bdaGDP]=39.5/100×37.7μM=14.9μM (5b) [Ras:GDP]=60.5/100×37.7μM=22.8μM (5c) [bdaGDP]=50μM-14.9μM=35.1μM (5d) [GDP]=37.7μM-22.8μM=14.9μM The relative association constant KrelA can be calculated by the following formula (Equation 6):(6) […] By inserting the concentrations of each component determined from (Equation 4a, Equation 4b, Equation 4c, Equation 4d) and (Equation 5a, Equation 5b, Equation 5c, Equation 5d) into (Equation 6), the relative association constants KrelA for […] (Equation 10a) and […]=1/0.136pM^-1=7.4pM (10b) KDbdaGDP=1/0.112pM^-1=8.9pM

KRas = biological target: KRas; design: method as in Jeganathan et al., 2018; conditions: reference value for GDP; ref Jeganathan et al., 2018; cited from earlier work
[1] = system: T1, KRasG13C1-169 (Cys-light); assay: Covalent modification of protein controlled by ESI-MS; format: binding
T1 construct: KRasWT1-169 and KRasG13C1-169 Cys-light (C51S C80L C118S) were expressed in BL21 (DE3) E. coli; hexahistidine (TEV site) (N, cleaved yes); made in house; host or cells: E. coli BL21 (DE3)
Protocol: After incubation at room temperature for the appropriate time, the modification of the protein was controlled by ESI-MS. For covalent modification of full-length KRasG13C, a nucleotide exchange with a 10-fold excess of the acryl-bearing nucleotides at pH 7.5 was first performed following incubation at room temperature for 24 h at pH 9.5 for covalent protein modification. Covalent protein modification was controlled by ESI-MS. The MS spectra were recorded on a VelosPro IonTrap (Thermo Scientific) with an EC 50/3 Nucleodur C18 1.8 μm column (Macherey and Nagel) and a gradient of the mobile phase A (0.1% formic acid in water) to B (0.1% formic acid in acetonitrile).

Rab21 = assay: as above; format: binding; conditions: compared to KRasG13C

Compound	kon (nucleotide-free KRas)	koff (nucleotide-free KRas; calculated kinetic parameter)	KA (KRasWT1-169)	Kd (KRas)	covalent labelling of KRasG13C1-169 (Cys-light) ([1]; pH 7.5, after 24 hr)	covalent labelling of KRasG13C1-169 (Cys-light) ([1]; pH 9.5, after 24 hr)	covalent modification of Rab21 (Rab21)
Nc1nc2c(ncn2[C@@H]2O[C@H](COP(=O)(O)OP(=O)(O)O)[C@@H](O)[C@H]2O)c(=O)[nH]1 [GDP, reference compound]	4.22 µM^–1s^–1	1.1x10^–5 s^–1	0.4 pM⁻¹	2.5 pM			
C=CC(=O)NCCNC(=O)O[C@H]1[C@@H](O)[C@H](n2cnc3c(=O)[nH]c(N)nc32)O[C@@H]1COP(=O)(O)OP(=O)(O)O [edaGDP]	3.73 µM^–1s^–1				slight labelling	~100%	comparable to KRasG13C
